Laboratory results taken from US20100099681A1, “SUBSTITUTED 5-AMINOPYRAZOLES AND USE THEREOF” (BAYER SCHERING PHARMA AKTIENGESELLSCHAFT, priority 2008, published 2010).

Columns and labels:
Type in all cases: cell-based
[1] = molecular target: T1, adenosine receptor subtype A2a (Homo sapiens, UniProt P29274); test: Indirect determination of adenosine antagonism via gene expression (luciferase reporter), A2a; conditions: CHO K1 cells, CRE luciferase reporter; inhibition of luciferase response to agonist 30 nM NECA
T1 construct: expressed in transfected cells; host or cells: CHO K1
T1 sequence (P29274 whole entry): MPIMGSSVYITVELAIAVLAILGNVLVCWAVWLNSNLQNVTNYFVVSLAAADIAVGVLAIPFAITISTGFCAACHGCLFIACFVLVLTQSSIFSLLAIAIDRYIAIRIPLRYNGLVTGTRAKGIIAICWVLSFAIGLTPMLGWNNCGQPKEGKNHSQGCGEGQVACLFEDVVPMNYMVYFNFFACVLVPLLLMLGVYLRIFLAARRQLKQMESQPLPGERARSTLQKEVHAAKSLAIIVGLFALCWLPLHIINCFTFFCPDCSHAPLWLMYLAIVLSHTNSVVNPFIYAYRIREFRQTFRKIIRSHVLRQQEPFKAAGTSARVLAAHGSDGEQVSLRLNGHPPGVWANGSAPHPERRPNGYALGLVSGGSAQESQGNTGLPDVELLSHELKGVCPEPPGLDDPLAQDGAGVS
Description: (§1) Cells of the permanent line CHO K1 (Chinese Hamster Ovary) are stably transfected with a reporter construct (CRE luciferase) and the cDNA for the adenosine receptor subtypes A2a or A2b. A2a or A2b receptors are coupled via Gαs proteins to adenylate cyclase. Through receptor activation, the adenylate cyclase is activated and therefore the cAMP level in the cell is increased. Via the reporter construct, a cAMP-dependent promoter, the change in the cAMP level is coupled to luciferase expression.
(§2) The permanent cell lines are cultured in DMEM/F12-Glutamax (Cat.No. 31331-028; Gibco) with 10% FCS (fetal calf serum) and various additives (10 ml/liter 1M HEPES (Cat.No. 15630; Gibco), 14 ml/liter MEM sodium pyruvate (Cat.No. 11360-039; Gibco) at 37° C. under 5% carbon dioxide, and split twice weekly.
(§3) For testing in the 384-well or 96-well plate format, the cells are sown at 2000 or 5000 cells/well in 25 or 50 μl/well test medium (OptiMEM-Glutamax with 2.5% activated-charcoal-treated FCS, Hyclone) and cultured at 37° C. under 5% carbon dioxide until substance testing. The A2a and A2b cells are sown, 24 h before substance testing, in OptiMEM with 2.5% activated-charcoal-treated FCS (Hyclone). The A1-Gα16 cells are sown, 48 h before substance testing, in OptiMEM-Glutamax with 2.5% activated-charcoal-treated FCS and additives. The substances are pipetted at a final concentration from 1×10^−5 M to 1×10^−11 M to the test cultures, with the DMSO content on the cells not exceeding 0.5%. NECA (5-N-ethyl-carboxamido-adenosine) at a final concentration of 30 nM, which roughly corresponds to the EC50 concentration, is used as agonist for the A2a and A2b cells. 25 nM CPA (N6-cyclopenty adenosine), which roughly corresponds to the EC7-5 concentration, is used as agonist for the A1-Ga16 cells. After adding the substances, the cell plates are incubated for 3-4 h at 37° C. under 5% carbon dioxide. Then 50 μl of a solution consisting to 50% of lysis reagent (Triton buffer, PAA Cat.No. T21-160) and to 50% of luciferase substrate solution (2.5 mM ATP, 0.5 mM luciferin, 0.1 mM coenzyme A, 10 mM Tricin, 1.35 mM magnesium sulfate, 15 mM DTT, pH 7.8) is added to the cells directly before measurement. The luciferase activity is detected with a luminescence reader. The IC50 values are determined, i.e. the concentrations at which the luciferase response, produced by the respective agonist, is inhibited to 50%. The IC50 values are calculated with the computer program GraphPad PRISM (Version 3.02). ZM241385, for the A2a and A2b cells, and DPCPX (1,3-dipropyl-8-cyclopentylxanthine), for the A1-Gα16 cells, are used as reference antagonist.

[2] = molecular target: T2, adenosine receptor subtype A2b (Homo sapiens, UniProt P29275); test: Indirect determination of adenosine antagonism via gene expression (luciferase reporter), A2b; conditions: CHO K1 cells, CRE luciferase reporter; inhibition of luciferase response to agonist 30 nM NECA
T2 construct: expressed in transfected cells; host or cells: CHO K1
T2 sequence (P29275 1-332): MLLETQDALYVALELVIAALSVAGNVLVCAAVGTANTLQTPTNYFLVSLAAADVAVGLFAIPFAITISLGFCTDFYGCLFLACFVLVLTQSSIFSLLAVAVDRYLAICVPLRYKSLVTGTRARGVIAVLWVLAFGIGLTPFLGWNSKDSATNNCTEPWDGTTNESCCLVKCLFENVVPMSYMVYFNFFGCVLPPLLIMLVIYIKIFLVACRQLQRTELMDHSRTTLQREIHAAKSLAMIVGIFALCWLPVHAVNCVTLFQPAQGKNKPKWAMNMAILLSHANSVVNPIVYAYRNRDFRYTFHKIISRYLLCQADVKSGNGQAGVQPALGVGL
Description: as §1, §2, §3

[3] = molecular target: T3, adenosine receptor subtype A1 (A1-Gα16 fusion construct) (Homo sapiens, UniProt P30542); test: Indirect determination of adenosine antagonism via gene expression (luciferase reporter), A1; conditions: CHO K1 cells, NFAT-TA-Luc reporter, inhibition of luciferase response to agonist 25 nM CPA
T3 construct: expressed in transfected cells; host or cells: CHO K1
T3 sequence (P30542 with tags, fused parts or gaps): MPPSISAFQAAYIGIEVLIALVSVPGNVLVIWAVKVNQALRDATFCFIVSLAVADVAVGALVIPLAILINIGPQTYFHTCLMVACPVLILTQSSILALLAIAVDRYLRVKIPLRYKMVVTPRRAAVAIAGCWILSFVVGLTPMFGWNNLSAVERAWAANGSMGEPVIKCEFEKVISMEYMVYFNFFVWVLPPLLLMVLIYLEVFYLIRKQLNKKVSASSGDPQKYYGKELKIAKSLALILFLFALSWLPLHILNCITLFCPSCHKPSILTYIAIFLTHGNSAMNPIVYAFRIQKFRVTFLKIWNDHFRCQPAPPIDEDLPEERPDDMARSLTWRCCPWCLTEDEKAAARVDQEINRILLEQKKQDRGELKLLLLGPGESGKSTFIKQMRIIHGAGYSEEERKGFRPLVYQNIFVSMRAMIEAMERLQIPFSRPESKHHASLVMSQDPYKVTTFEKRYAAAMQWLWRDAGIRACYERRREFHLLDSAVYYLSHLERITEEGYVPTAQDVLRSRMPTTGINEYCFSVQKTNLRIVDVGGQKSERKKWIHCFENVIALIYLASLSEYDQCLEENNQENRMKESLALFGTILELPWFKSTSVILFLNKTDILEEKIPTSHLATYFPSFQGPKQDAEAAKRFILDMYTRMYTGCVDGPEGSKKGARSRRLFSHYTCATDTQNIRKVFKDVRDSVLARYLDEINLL
Description: For determination of adenosine antagonism on the adenosine receptor subtype A1, once again CHO K1 cells are stably transfected, but this time with a Ca^2+-sensitive reporter construct (NFAT-TA-Luc; Clontech) and an A1-Gα16 fusion construct. This receptor chimera is, in contrast to the native A1 receptor (Gαi-coupling), coupled to phospholipase C. The luciferase is expressed here as a function of the cytosolic Ca^2+ concentration.
as §2, §3

SMILES | IC50 [1] [µM] | IC50 [2] [µM] | IC50 [3] [nM]
Cc1ccccc1-n1nc(C(F)(F)F)c(-c2ccc3nccnc3c2)c1Nc1ccc(Cl)cc1C(=O)O [Example 6, 2-{[4-(Quinoxalin-6-yl)-1-(2-methylphenyl)-3-(trifluoromethyl)-1H-pyrazol-5-yl]amino}-5-chlorobenzoic acid] | > 10 | > 10 | 9.5
COc1ccc(Nc2c(-c3ccc4[nH]ncc4c3)c(C)nn2-c2ccccc2C)c(C(=O)O)c1 [Example 9, 2-{[4-(1H-Indazol-5-yl)-3-methyl-1-(2-methylphenyl)-1H-pyrazol-5-yl]amino}-5-methoxybenzoic acid] | > 10 | > 10 | 11.2
COc1ccc(Nc2c(-c3ccc4scnc4c3)c(C)nn2-c2ccccc2C)c(C(=O)O)c1 [Example 11, 2-{[4-(1,3-Benzothiazol-5-yl)-3-methyl-1-(2-methylphenyl)-1H-pyrazol-5-yl]amino}-5-methoxybenzoic acid] | > 10 | > 10 | 11.7
COc1ccc(Nc2c(-c3cc4nccnc4cc3F)c(C)nn2-c2ccccc2C)c(C(=O)O)c1 [Example 16, 2-{[4-(7-Fluoroquinoxalin-6-yl)-3-methyl-1-(2-methylphenyl)-1H-pyrazol-5-yl]amino}-5-methoxybenzoic acid] | > 10 | > 10 | 1.6
COc1ccc(Nc2c(-c3ccc4ncnn4c3)c(C)nn2-c2ccccc2C)c(C(=O)O)c1 [Example 20, 5-Methoxy-2-{[3-methyl-1-(2-methylphenyl)-4-([1,2,4]triazolo[1,5-a]pyridin-6-yl)-1H-pyrazol-5-yl]amino}benzoic acid] | > 10 | > 10 | 1.9
Cc1ccccc1-n1nc(C)c(-c2ccc3cccnc3c2)c1Nc1ccccc1C(=O)O [Example 27, 2-{[4-(Quinolin-7-yl)-3-methyl-1-(2-methylphenyl)-1H-pyrazol-5-yl]amino}benzoic acid] | > 10 | > 10 | 99
Cc1ccccc1-n1nc(C)c(-c2ccc3ncc(N(C)C)nc3c2)c1Nc1ccccc1C(=O)O [Example 28, 2-({4-[3-(Dimethylamino)quinoxalin-6-yl]-3-methyl-1-(2-methylphenyl)-1H-pyrazol-5-yl}amino)benzoic acid] | – | – | 19
Cc1ccccc1-n1nc(C)c(-c2cc3nccnc3c(F)c2OCCO)c1Nc1ccccc1C(=O)O [Example 31, 2-({4-[8-Fluoro-7-(2-hydroxyethoxy)quinoxalin-6-yl]-3-methyl-1-(2-methylphenyl)-1H-pyrazol-5-yl}amino)benzoic acid] | – | – | 42
COc1ccnc2ccc(-c3c(C)nn(-c4ccccc4C)c3Nc3ccccc3C(=O)O)cc12 [Example 32, 2-{[4-(4-Methoxyquinolin-6-yl)-3-methyl-1-(2-methylphenyl)-1H-pyrazol-5-yl]amino}benzoic acid] | – | – | 78
Cc1ccccc1-n1nc(C)c(-c2cc(F)c3cncnc3c2)c1Nc1ccccc1C(=O)O [Example 43, 2-{[4-(5-Fluoroquinazolin-7-yl)-3-methyl-1-(2-methylphenyl)-1H-pyrazol-5-yl]amino}benzoic acid] | > 10 | > 10 | 23
Cc1nn(-c2ccc(F)cc2F)c(Nc2ccccc2C(=O)O)c1-c1cc(F)c2nccnc2c1 [Example 46, 2-{[1-(2,4-Difluorophenyl)-4-(8-fluoroquinoxalin-6-yl)-3-methyl-1H-pyrazol-5-yl]amino}benzoic acid] | > 10 | > 10 | 8.5

Compounds with a lower IC50 [3], results first:

IC50 [1] [µM] | IC50 [2] [µM] | IC50 [3] [nM] | SMILES
> 10 | > 10 | 1 | Cc1ccccc1-n1nc(C)c(-c2ccc3nccnc3c2)c1Nc1ccc(Cl)cc1C(=O)O [Example 2, 2-{[4-(Quinoxalin-6-yl)-3-methyl-1-(2-methylphenyl)-1H-pyrazol-5-yl]amino}-5-chlorobenzoic acid]
> 10 | > 10 | 1 | CCc1ccc(Nc2c(-c3ccc4nccnc4c3)c(C)nn2-c2ccccc2C)c(C(=O)O)c1 [Example 13, 2-{[4-(Quinoxalin-6-yl)-3-methyl-1-(2-methylphenyl)-1H-pyrazol-5-yl]amino}-5-ethylbenzoic acid]
> 10 | > 10 | 1 | CCOc1ccccc1-n1nc(C)c(-c2ccc3nccnc3c2)c1Nc1ccc(OC)cc1C(=O)O [Example 22, 2-{[4-(Quinoxalin-6-yl)-1-(2-ethoxyphenyl)-3-methyl-1H-pyrazol-5-yl]amino}-5-methoxybenzoic acid]
> 10 | > 10 | 0.6 | Cc1ccccc1-n1nc(C)c(-c2cc(F)c3nccnc3c2)c1Nc1ccccc1C(=O)O [Example 33, 2-{[4-(8-Fluoroquinoxalin-6-yl)-3-methyl-1-(2-methylphenyl)-1H-pyrazol-5-yl]amino}benzoic acid]
> 10 | > 10 | 0.7 | Cc1nn(-c2ccccc2)c(Nc2ccccc2C(=O)O)c1-c1cc2nccnc2c(F)c1F [Example 36, 2-{[4-(7,8-Difluoroquinoxalin-6-yl)-3-methyl-1-phenyl-1H-pyrazol-5-yl]amino}benzoic acid]
> 10 | > 10 | 1 | Cc1ccccc1-n1nc(C)c(-c2ccn3nc(N)nc3c2)c1Nc1ccccc1C(=O)O [Example 39, 2-{[4-(2-Amino [1,2,4]triazolo[1,5-a]pyridin-7-yl)-3-methyl-1-(2-methylphenyl)-1H-pyrazol-5-yl]amino}benzoic acid]
